From patent US12521393B2, “Cytotoxicity targeting chimeras for CCR2-expressing cells” (GLAXOSMITHKLINE INTELLECTUAL PROPERTY DEVELOPMENT LIMITED, priority 2021, dated 2026)

System: endogenous target monocytes in human PBMC
Experiment: PBMC ex vivo monocyte depletion flow cytometry assay (Example 200)
Type: cell-based
Conditions: with anti-cotinine antibody (SEQ ID NO: 11/12), 18-24 hours, EC50 in molar, read-out: Ex Vivo Depletion Assay pEC50 (converted)
Protocol: A human PBMC (peripheral blood mononuclear cells) monocyte depletion flow cytometry assay was developed to screen compounds in a 384-well plate format. This assay incorporated endogenous natural killer cells to deplete endogenous target monocytes.
To screen compounds in the human PBMC monocyte depletion flow cytometry assay, 11-point dose-response curves were made from 1 mM stocks in neat DMSO by serially diluting an ARM compound of Formula (I) four-fold into a 384-well plate row-wise. These serially diluted compounds were then stamped into a flat bottom polypropylene 384-well plate (Greiner Bio-One) at 100 nL/well. Fifty microliters of 30 μg/mL anti-cotinine antibody having a heavy chain sequence of SEQ ID NO: 11 and a light chain sequence of SEQ ID NO: 12 (rabbit variable region with human IgG1 Fc domain containing a DE mutation (S239D/1332E)) that had been diluted in assay medium (RPMI 1640 (Gibco) containing 10% fetal bovine serum (Gibco), 1% Glutamax (Gibco) and 1% sodium pyruvate (Corning) was added to the wells of the plate. The plate was centrifuged for 1 min at 500 rpm (revolutions per minute) and then shaken for 5 min at room temperature. The plate was incubated for 15 minutes at 37° C./5% CO2.
Frozen PBMC cells (HemaCare BioResearch) were thawed and centrifuged at 1,200 rpm for 4 minutes. The cells were diluted to a cell density of 2×10^6 cells/mL in assay medium. Fifty microliters of the diluted cells were added to the wells of the plate. The plate was centrifuged for 1 min at 500 rpm and incubated for 18-24 hours at 37° C./5% CO2.
After 18-24 hours incubation, 2 μL of 6.25 μg human FC block (BD Pharmingen) that was diluted in assay medium was added to the wells of the plate. The plate was centrifuged for 1 minute at 500 rpm and then incubated at room temperature for 15 minutes. Five microliters of 750 nM Helix NP NIR (Biolegend) that had been diluted in assay medium was added to the wells of the plate. Nine microliters of antibody cocktail containing 1/5 diluted fluorescein isothiocyanate (FITC) labeled anti-CD45 antibody (Beckman Coulter), PC7 labeled anti-CD14 antibody (Beckman Coulter) and phyocoerythrin (PE) anti-CD4 antibody (Beckman Coulter) was then added to the wells of the plate. The plate was centrifuged for 1 min at 500 rpm and incubated for 30 minutes at 4-8° C. Samples from the plate were run on BD FACS Canto II flow cytometer and data was analyzed using FlowJo software.
ARMs compounds of Formula (I) of the invention were tested for the ability to deplete monocytes in the above assay in one or more experimental runs and the results are shown in Table 3 below. Potency of the compounds of the invention is reported as a pEC50 value. The pEC50 value is the negative log of the EC50 value, wherein the EC50 value is the half maximal effective concentration measured in molar (M). For compounds tested in more than one experimental run, the pEC50 value is reported as an average or as the individual values measured

Compound | EC50 [nM]
CC(C)N(C)[C@@H]1CC[C@H](N2CC[C@H](Nc3ncnc4ccc(C(F)(F)F)cc34)C2=O)[C@H](NC(=O)CCCNC(=O)CCCC(=O)NCCCOCCCNC(=O)C2CC(=O)N(C)C2c2cccnc2)C1 (stereo in doubt) [Example 21, N1-(4-(((1R,2S,5R)-5-(Isopropyl(methyl)amino)-2-((S)-2-oxo-3-((6-(trifluoromethyl)quinazolin-4-yl)amino)pyrrolidin-1-yl)cyclohexyl)amino)-4-oxobutyl)-N5-(3-(3-((2S,3S)-1-methyl-5-oxo-2-(pyridin-3-yl)pyrrolidine-3-carboxamido)propoxy)propyl)glutaramide] | 0.631
CC(C)N(C)[C@@H]1CC[C@H](N2CC[C@H](Nc3ncnc4ccc(C(F)(F)F)cc34)C2=O)[C@H](NC(=O)C23CCC(NC(=O)CCOCCOCCOCCNC(=O)[C@H]4CC(=O)N(C)[C@@H]4c4cccnc4)(CC2)CC3)C1 [Example 25, (2S,3S)-N-(2-(2-(2-(3-((4-(((1R,2S,5R)-5-(Isopropyl(methyl)amino)-2-((S)-2-oxo-3-((6-(trifluoromethyl)quinazolin-4-yl)amino)pyrrolidin-1-yl)cyclohexyl)carbamoyl)bicyclo[2.2.2]octan-1-yl)amino)-3-oxopropoxy)ethoxy)ethoxy)ethyl)-1-methyl-5-oxo-2-(pyridin-3-yl)pyrrolidine-3-carboxamide] | 2
CC(C)N(C)[C@@H]1CC[C@H](N2CC[C@H](Nc3ncnc4ccc(C(F)(F)F)cc34)C2=O)[C@H](NC(=O)[C@H]2C[C@H](NC(=O)CCOCCNC(=O)CCOCCNC(=O)[C@@H]3CC(=O)N(C)[C@H]3c3cccnc3)C2)C1 [Example 45, (2S,3S)-N-(2-(3-((2-(3-(((1R,3r)-3-(((1R,2S,5R)-5-(Isopropyl(methyl)amino)-2-((S)-2-oxo-3-((6-(trifluoromethyl)quinazolin-4-yl)amino)pyrrolidin-1-yl)cyclohexyl)carbamoyl)cyclobutyl)amino)-3-oxopropoxy)ethyl)amino)-3-ixopropoxy)ethyl)-1-methyl-5-oxo-2-(pyridin-3-yl)pyrrolidine-3-carboxamide] | 2
CC(C)N(C)[C@@H]1CC[C@H](N2CC[C@H](Nc3ncnc4ccc(C(F)(F)F)cc34)C2=O)[C@H](NC(=O)CCCOC[C@H]2CC[C@H](COCCNC(=O)[C@H]3CC(=O)N(C)[C@@H]3c3cccnc3)CC2)C1 [Example 58, (2S,3S)-N-(2-(((1R,4S)-4-((4-(((1R,2S,5R)-5-(Isopropyl(methyl)amino)-2-((S)-2-oxo-3-((6-(trifluoromethyl)quinazolin-4-yl)amino)pyrrolidin-1-yl)cyclohexyl)amino)-4-oxobutoxy)methyl)cyclohexyl)methoxy)ethyl)-1-methyl-5-oxo-2-(pyridin-3-yl)pyrrolidine-3-carboxamide] | 7.94
CC(C)N(C)[C@@H]1CC[C@H](N2CC[C@H](Nc3ncnc4ccc(C(F)(F)F)cc34)C2=O)[C@H](NC(=O)CCCOCC23CCC(COCCNC(=O)[C@H]4CC(=O)N(C)[C@@H]4c4cccnc4)(CC2)CC3)C1 [Example 59] | 1.58
CC(C)N(C)[C@@H]1CC[C@H](N2CC[C@H](Nc3ncnc4ccc(C(F)(F)F)cc34)C2=O)[C@H](NC2CCC(C(=O)NCCOCCOCCNC(=O)[C@H]3CC(=O)N(C)[C@@H]3c3cccnc3)CC2)C1 (stereo partly drawn) [Example 68, (2S,3S)-N-(2-(2-(2-(4-(((1R,2S,5R)-5-(Isopropyl(methyl)amino)-2-((S)-2-oxo-3-((6-(trifluoromethyl)quinazolin-4-yl)amino)pyrrolidin-1-yl)cyclohexyl)amino)cyclohexane-1-carboxamido)ethoxy)ethoxy)ethyl)-1-methyl-5-oxo-2-(pyridin-3-yl)pyrrolidine-3-carboxamide] | 100000
CC(C)N(C)[C@@H]1CC[C@H](N2CC[C@H](Nc3ncnc4ccc(C(F)(F)F)cc34)C2=O)[C@H](NC(=O)COCCNC(=O)CNC(=O)COCCOCCNC(=O)[C@H]2CC(=O)N(C)[C@@H]2c2cccnc2)C1 [Example 78, (2S,3S)-N-(1-(((1R,2S,5R)-5-(Isopropyl(methyl)amino)-2-((S)-2-oxo-3-((6-(trifluoromethyl)quinazolin-4-yl)amino)pyrrolidin-1-yl)cyclohexyl)amino)-1,7,10-trioxo-3,12,15-trioxa-6,9-diazaheptadecan-17-yl)-1-methyl-5-oxo-2-(pyridin-3-yl)pyrrolidine-3-carboxamide] | 2.51
CC(C)N(C)[C@@H]1CC[C@H](N2CC[C@H](Nc3ncnc4ccc(C(F)(F)F)cc34)C2=O)[C@H](NC(=O)COCC(=O)N2CCN(C(=O)N3CCN(C(=O)COCCNC(=O)[C@H]4CC(=O)N(C)[C@@H]4c4cccnc4)CC3)CC2)C1 [Example 84, (2S,3S)-N-(2-(2-(4-(4-(2-(2-(((1R,2S,5R)-5-(isopropyl(methyl)amino)-2-((S)-2-oxo-3-((6-(trifluoromethyl)quinazolin-4-yl)amino)pyrrolidin-1-yl)cyclohexyl)amino)-2-oxoethoxy)acetyl)piperazine-1-carbonyl)piperazin-1-yl)-2-oxoethoxy)ethyl)-1-methyl-5-oxo-2-(pyridin-3-yl)pyrrolidine-3-carboxamide] | 1
CC(C)N(C)[C@@H]1CC[C@H](N2CC[C@H](Nc3ncnc4ccc(C(F)(F)F)cc34)C2=O)[C@H](NC(=O)C2CCN(C3CCN(C(=O)CCCCCNC(=O)[C@H]4CC(=O)N(C)[C@@H]4c4cccnc4)CC3)CC2)C1 [Example 87, N-((1R,2S,5R)-5-(Isopropyl(methyl)amino)-2-((S)-2-oxo-3-((6-(trifluoromethyl)quinazolin-4-yl)amino)pyrrolidin-1-yl)cyclohexyl)-1'-(6-((2S,3S)-1-methyl-5-oxo-2-(pyridin-3-yl)pyrrolidine-3-carboxamido)hexanoyl)-[1,4'-bipiperidine]-4-carboxamide] | 0.398
CC(C)N(C)[C@@H]1CC[C@H](N2CC[C@H](Nc3ncnc4ccc(C(F)(F)F)cc34)C2=O)[C@H](NC(=O)c2cc(OCCOCCOCCOCCOCCNC(=O)[C@H]3CC(=O)N(C)[C@@H]3c3cccnc3)ccn2)C1 [Example 88, N-((1R,2S,5R)-5-(Isopropyl(methyl)amino)-2-((S)-2-oxo-3-((6-(trifluoromethyl)quinazolin-4-yl)amino)pyrrolidin-1-yl)cyclohexyl)-4-((1-((2S,3S)-1-methyl-5-oxo-2-(pyridin-3-yl)pyrrolidin-3-yl)-1-oxo-5,8,11,14-tetraoxa-2-azahexadecan-16-yl)oxy)picolinamide] | 7.94
CC(C)N(C)[C@@H]1CC[C@H](N2CC[C@H](Nc3ncnc4ccc(C(F)(F)F)cc34)C2=O)[C@H](NC(=O)c2cc(OCCOCCOCCOCCNC(=O)[C@H]3CC(=O)N(C)[C@@H]3c3cccnc3)ccn2)C1 [Example 89, N-((1R,2S,5R)-5-(Isopropyl(methyl)amino)-2-((S)-2-oxo-3-((6-(trifluoromethyl)quinazolin-4-yl)amino)pyrrolidin-1-yl)cyclohexyl)-4-((1-((2S,3S)-1-methyl-5-oxo-2-(pyridin-3-yl)pyrrolidin-3-yl)-1-oxo-5,8,11-trioxa-2-azatridecan-13-yl)oxy)picolinamide] | 25.1
CC(C)N(C)[C@@H]1CC[C@H](N2CC[C@H](Nc3ncnc4ccc(C(F)(F)F)cc34)C2=O)[C@H](NC(=O)c2ccc(OC3CCN(CCOCCOCCNC(=O)[C@H]4CC(=O)N(C)[C@@H]4c4cccnc4)CC3)cc2)C1 [Example 91] | 0.794
CC(C)N(C)[C@@H]1CC[C@H](N2CC[C@H](Nc3ncnc4ccc(C(F)(F)F)cc34)C2=O)[C@H](NC(=O)c2cnn(C3CCN(CCOCCOCCNC(=O)[C@H]4CC(=O)N(C)[C@@H]4c4cccnc4)CC3)c2)C1 [Example 92, N-((1R,2S,5R)-5-(Isopropyl(methyl)amino)-2-((S)-2-oxo-3-((6-(trifluoromethyl)quinazolin-4-yl)amino)pyrrolidin-1-yl)cyclohexyl)-1-(1-(2-(2-(2-((2S,3S)-1-methyl-5-oxo-2-(pyridin-3-yl)pyrrolidine-3-carboxamido)ethoxy)ethoxy)ethyl)piperidin-4-yl)-1H-pyrazole-4-carboxamide] | 25.1
